From PubChem BioAssay (NCI)
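Grown in 96-well plates, cells were treated for 48 hours with each compound at five concentrations. Insufficient inhibition: endpoint recorded as highest concentration tested. At the TGI there is no net growth.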

How the values were obtained:
Experiment in all cases: inhibition of tumour cell growth, NCI panel, 48 h
SK-MEL-28 melanoma = tested on: SK-MEL-28 melanoma
IGROV1 ovarian = tested on: IGROV1 ovarian
T-47D breast = tested on: T-47D breast
MDA-MB-231 breast = tested on: MDA-MB-231 breast
BT-549 breast = tested on: BT-549 breast
U251 CNS = tested on: U251 CNS
SF-268 CNS = tested on: SF-268 CNS
SF-295 CNS = tested on: SF-295 CNS
COLO 205 colon = tested on: COLO 205 colon
HCT-15 colon = tested on: HCT-15 colon
HCC-2998 colon = tested on: HCC-2998 colon
HT29 colon = tested on: HT29 colon
SW-620 colon = tested on: SW-620 colon
OVCAR-8 ovarian = tested on: OVCAR-8 ovarian
RXF 393 renal = tested on: RXF 393 renal
SK-OV-3 ovarian = tested on: SK-OV-3 ovarian
MDA-MB-435 = tested on: MDA-MB-435
SK-MEL-5 melanoma = tested on: SK-MEL-5 melanoma
SN12C renal = tested on: SN12C renal
LOX IMVI melanoma = tested on: LOX IMVI melanoma
K-562 leukemia = tested on: K-562 leukemia
OVCAR-3 ovarian = tested on: OVCAR-3 ovarian
CAKI-1 renal = tested on: CAKI-1 renal
HS 578T breast = tested on: HS 578T breast
OVCAR-5 ovarian = tested on: OVCAR-5 ovarian
HOP-92 NSCLC = tested on: HOP-92 NSCLC
MDA-N = tested on: MDA-N
MCF7 breast = tested on: MCF7 breast
SR leukemia = tested on: SR leukemia
UO-31 renal = tested on: UO-31 renal
TK-10 renal = tested on: TK-10 renal
OVCAR-4 ovarian = tested on: OVCAR-4 ovarian
RPMI-8226 leukemia = tested on: RPMI-8226 leukemia
UACC-257 melanoma = tested on: UACC-257 melanoma
SNB-19 CNS = tested on: SNB-19 CNS
M14 melanoma = tested on: M14 melanoma
SK-MEL-2 melanoma = tested on: SK-MEL-2 melanoma
PC-3 prostate = tested on: PC-3 prostate
MOLT-4 leukemia = tested on: MOLT-4 leukemia
EKVX NSCLC = tested on: EKVX NSCLC
NCI/ADR-RES ovarian = tested on: NCI/ADR-RES ovarian
CCRF-CEM leukemia = tested on: CCRF-CEM leukemia
NCI-H460 lung = tested on: NCI-H460 lung
ACHN renal = tested on: ACHN renal
NCI-H226 lung = tested on: NCI-H226 lung
UACC-62 melanoma = tested on: UACC-62 melanoma
KM12 colon = tested on: KM12 colon
HL-60(TB) leukemia = tested on: HL-60(TB) leukemia
A549 NSCLC = tested on: A549 NSCLC
SNB-75 CNS = tested on: SNB-75 CNS
HOP-62 NSCLC = tested on: HOP-62 NSCLC
A498 renal = tested on: A498 renal
HCT-116 colon = tested on: HCT-116 colon
NCI-H23 lung = tested on: NCI-H23 lung
DU-145 prostate = tested on: DU-145 prostate
NCI-H522 lung = tested on: NCI-H522 lung
786-0 renal = tested on: 786-0 renal
SF-539 CNS = tested on: SF-539 CNS
MALME-3M melanoma = tested on: MALME-3M melanoma

Structure (SMILES): CCN(CC)CCN1C=CC(C)C(C(=O)O)C1C(N)=O (stereo unspecified)
- TGI (SK-MEL-28 melanoma): > 100 µM
- TGI (IGROV1 ovarian): > 100 µM
- TGI (T-47D breast): > 100 µM
- TGI (MDA-MB-231 breast): > 100 µM
- TGI (BT-549 breast): > 100 µM
- TGI (U251 CNS): > 100 µM
- TGI (SF-268 CNS): > 100 µM
- TGI (SF-295 CNS): > 100 µM
- TGI (COLO 205 colon): > 100 µM
- TGI (HCT-15 colon): > 100 µM
- TGI (HCC-2998 colon): > 100 µM
- TGI (HT29 colon): > 100 µM
- TGI (SW-620 colon): > 100 µM
- TGI (OVCAR-8 ovarian): > 100 µM
- TGI (RXF 393 renal): > 100 µM
- TGI (SK-OV-3 ovarian): > 100 µM
- TGI (MDA-MB-435): > 100 µM
- TGI (SK-MEL-5 melanoma): > 100 µM
- TGI (SN12C renal): > 100 µM
- TGI (LOX IMVI melanoma): > 100 µM
- TGI (K-562 leukemia): > 100 µM
- TGI (OVCAR-3 ovarian): > 100 µM
- TGI (CAKI-1 renal): > 100 µM
- TGI (HS 578T breast): > 100 µM
- TGI (OVCAR-5 ovarian): > 100 µM
- TGI (HOP-92 NSCLC): > 100 µM
- TGI (MDA-N): > 100 µM
- TGI (MCF7 breast): > 100 µM
- TGI (SR leukemia): > 100 µM
- TGI (UO-31 renal): > 100 µM
- TGI (TK-10 renal): > 100 µM
- TGI (OVCAR-4 ovarian): > 100 µM
- TGI (RPMI-8226 leukemia): > 100 µM
- TGI (UACC-257 melanoma): > 100 µM
- TGI (SNB-19 CNS): > 100 µM
- TGI (M14 melanoma): > 100 µM
- TGI (SK-MEL-2 melanoma): > 100 µM
- TGI (PC-3 prostate): > 100 µM
- TGI (MOLT-4 leukemia): > 100 µM
- TGI (EKVX NSCLC): > 100 µM
- TGI (NCI/ADR-RES ovarian): > 100 µM
- TGI (CCRF-CEM leukemia): > 100 µM
- TGI (NCI-H460 lung): > 100 µM
- TGI (ACHN renal): > 100 µM
- TGI (NCI-H226 lung): > 100 µM
- TGI (UACC-62 melanoma): > 100 µM
- TGI (KM12 colon): > 100 µM
- TGI (HL-60(TB) leukemia): > 100 µM
- TGI (A549 NSCLC): > 100 µM
- TGI (SNB-75 CNS): > 100 µM
- TGI (HOP-62 NSCLC): > 100 µM
- TGI (A498 renal): > 100 µM
- TGI (HCT-116 colon): > 100 µM
- TGI (NCI-H23 lung): > 100 µM
- TGI (DU-145 prostate): > 100 µM
- TGI (NCI-H522 lung): > 100 µM
- TGI (786-0 renal): > 100 µM

Structure (SMILES): CC(C)(N=NC(C)(C)C(=N)N)C(=N)N
- TGI (SK-MEL-28 melanoma): > 100 µM
- TGI (IGROV1 ovarian): > 100 µM
- TGI (T-47D breast): > 100 µM
- TGI (MDA-MB-231 breast): > 100 µM
- TGI (BT-549 breast): > 100 µM
- TGI (U251 CNS): > 100 µM
- TGI (SF-268 CNS): > 100 µM
- TGI (SF-295 CNS): > 100 µM
- TGI (COLO 205 colon): > 100 µM
- TGI (HCT-15 colon): > 100 µM
- TGI (HCC-2998 colon): > 100 µM
- TGI (HT29 colon): > 100 µM
- TGI (SW-620 colon): > 100 µM
- TGI (OVCAR-8 ovarian): > 100 µM
- TGI (RXF 393 renal): > 100 µM
- TGI (SK-OV-3 ovarian): > 100 µM
- TGI (MDA-MB-435): > 100 µM
- TGI (SK-MEL-5 melanoma): > 100 µM
- TGI (SN12C renal): > 100 µM
- TGI (LOX IMVI melanoma): > 100 µM
- TGI (K-562 leukemia): > 100 µM
- TGI (OVCAR-3 ovarian): > 100 µM
- TGI (CAKI-1 renal): > 100 µM
- TGI (SF-539 CNS): > 100 µM
- TGI (HS 578T breast): > 100 µM
- TGI (OVCAR-5 ovarian): > 100 µM
- TGI (HOP-92 NSCLC): > 100 µM
- TGI (MDA-N): > 100 µM
- TGI (MCF7 breast): > 100 µM
- TGI (SR leukemia): > 100 µM
- TGI (UO-31 renal): > 100 µM
- TGI (TK-10 renal): > 100 µM
- TGI (OVCAR-4 ovarian): > 100 µM
- TGI (RPMI-8226 leukemia): > 100 µM
- TGI (UACC-257 melanoma): > 100 µM
- TGI (SNB-19 CNS): > 100 µM
- TGI (M14 melanoma): > 100 µM
- TGI (SK-MEL-2 melanoma): > 100 µM
- TGI (PC-3 prostate): > 100 µM
- TGI (MOLT-4 leukemia): > 100 µM
- TGI (EKVX NSCLC): > 100 µM
- TGI (NCI/ADR-RES ovarian): > 100 µM
- TGI (NCI-H460 lung): > 100 µM
- TGI (ACHN renal): > 100 µM
- TGI (NCI-H226 lung): > 100 µM
- TGI (UACC-62 melanoma): > 100 µM
- TGI (KM12 colon): > 100 µM
- TGI (HL-60(TB) leukemia): > 100 µM
- TGI (A549 NSCLC): > 100 µM
- TGI (SNB-75 CNS): > 100 µM
- TGI (HOP-62 NSCLC): > 100 µM
- TGI (A498 renal): > 100 µM
- TGI (HCT-116 colon): > 100 µM
- TGI (NCI-H23 lung): > 100 µM
- TGI (DU-145 prostate): > 100 µM
- TGI (NCI-H522 lung): > 100 µM
- TGI (786-0 renal): > 100 µM

Structure (SMILES): N#CC1(C#N)C2=C(CCCC2)NC(c2ccc(Br)cc2)C1(C#N)C#N (stereo unspecified)
- TGI (SK-MEL-28 melanoma): 25.9 µM
- TGI (IGROV1 ovarian): 9.24 µM
- TGI (T-47D breast): 5.41 µM
- TGI (MDA-MB-231 breast): 23.9 µM
- TGI (BT-549 breast): 26.9 µM
- TGI (U251 CNS): 26.8 µM
- TGI (SF-268 CNS): 24.7 µM
- TGI (SF-295 CNS): 56.5 µM
- TGI (COLO 205 colon): 2.58 µM
- TGI (HCT-15 colon): 9.85 µM
- TGI (HCC-2998 colon): 46.4 µM
- TGI (HT29 colon): 10.1 µM
- TGI (SW-620 colon): 2.88 µM
- TGI (OVCAR-8 ovarian): 11.5 µM
- TGI (RXF 393 renal): 6.15 µM
- TGI (SK-OV-3 ovarian): > 56.4 µM
- TGI (MDA-MB-435): 9.05 µM
- TGI (SK-MEL-5 melanoma): 28.8 µM
- TGI (SN12C renal): 7.06 µM
- TGI (LOX IMVI melanoma): 6.93 µM
- TGI (K-562 leukemia): 12 µM
- TGI (OVCAR-3 ovarian): 18.2 µM
- TGI (CAKI-1 renal): 4.99 µM
- TGI (SF-539 CNS): 31.6 µM
- TGI (HS 578T breast): 44.6 µM
- TGI (MALME-3M melanoma): 3.83 µM
- TGI (OVCAR-5 ovarian): 24.9 µM
- TGI (HOP-92 NSCLC): 18.9 µM
- TGI (MDA-N): 14 µM
- TGI (MCF7 breast): 19.9 µM
- TGI (SR leukemia): 5.56 µM
- TGI (UO-31 renal): 3.03 µM
- TGI (TK-10 renal): 16 µM
- TGI (OVCAR-4 ovarian): 20.7 µM
- TGI (RPMI-8226 leukemia): 15.8 µM
- TGI (UACC-257 melanoma): 11.5 µM
- TGI (SNB-19 CNS): 30.1 µM
- TGI (M14 melanoma): 7.04 µM
- TGI (SK-MEL-2 melanoma): 34.1 µM
- TGI (PC-3 prostate): 26.8 µM
- TGI (MOLT-4 leukemia): 15.7 µM
- TGI (EKVX NSCLC): 25.3 µM
- TGI (NCI/ADR-RES ovarian): > 100 µM
- TGI (NCI-H460 lung): 63.6 µM
- TGI (ACHN renal): 3.88 µM
- TGI (NCI-H226 lung): 39 µM
- TGI (UACC-62 melanoma): 32.4 µM
- TGI (KM12 colon): 29.4 µM
- TGI (A549 NSCLC): 30.9 µM
- TGI (SNB-75 CNS): 30.8 µM
- TGI (HOP-62 NSCLC): 35.7 µM
- TGI (A498 renal): 37.5 µM
- TGI (HCT-116 colon): 4.15 µM
- TGI (NCI-H23 lung): 30.3 µM
- TGI (DU-145 prostate): 25.1 µM
- TGI (NCI-H522 lung): 3.06 µM
- TGI (786-0 renal): 3.75 µM
